# Assay results from article PMC12163317, “The food effect on the pharmacokinetics of TQB3616 capsule in Chinse healthy subjects: a randomized, open-label, single-center, two-period, two-sequence crossover phase I clinical trial” (Frontiers in Pharmacology, 2025).
# Assays:
# [1] = parameters: method as in unpublished data; settings: ref unpublished data; cited from earlier work
# [2] = Safety analysis, adverse events (CTCAE version 5.0) in the food-effect trial; format: in vivo, human
# Source text: The safety analysis utilized the safety data set (SS), comprising all subjects receiving TQB3616 with recorded safety assessments. The safety assessments indicators included adverse events, serious adverse events, laboratory tests (routine blood, blood biochemistry, urinalysis, and coagulation), vital signs ([…]), 12-lead electrocardiogram, and physical examination. The frequency, type, extent, and comorbid medications of all treatment-emergent adverse events (TEAEs) occurring during treatment were recorded systematically documented. For severity, adverse events were rated and documented using the National Cancer Institute-Common Terminology Criteria for Adverse Events (CTCAE) version 5.0. The Medical Dictionary for Regulatory Activities (MedDRA) was used to encode the classification of adverse events. Any adverse events observed during the trial were monitored until resolution, return to baseline levels, or stabilization the subject’s condition.
# MCF-7 tumor = tested on: MCF-7 tumor; parameters: method as in unpublished data; settings: ref unpublished data, cited from earlier work
# [3] = Food effect on pharmacokinetics of TQB3616 capsule, crossover phase I trial, plasma concentration by LC-MS/MS; format: in vivo, human; settings: for AUC_Extrap / t1/2 / λZ / AUC0-t / AUC0-∞ / Cmax: mean ± SD; for AUC0-t / AUC0-∞ / Cmax / Tmax: single oral 180 mg; for Tmax: median (min, max)
# Experimental: This was a randomized, open-label, single-center, two-period, two-sequence crossover early phase I clinical trial to evaluate the food effect on the pharmacokinetics of TQB3616 capsules in healthy subjects. The trial was conducted at Affiliated Hospital of Changchun University of Chinese Medicine and the protocol was approved by the Ethics Committee of the Affiliated Hospital of Changchun University of Chinese Medicine (CCZYFYLL 2021-006). The ethical approval process of this study complied with the requirements of Good Clinical Practice (GCP), the Declaration of Helsinki and the relevant domestic laws and regulations. All subjects had provided written informed consent before the study.
# Subjects were admitted to the research center 2 days prior to drug administration and randomly assigned to either Group A or Group B at a 1:1 ratio. Group A, subjects received the study drug under fasted condition in period one and under fed condition in period 2. Conversely, in Group B, subjects received the study drug under fed conditions in the first period and under fasting conditions in the second period. The study employed a crossover design, with a washout period of at least 19 days between the two treatment periods.
# The study protocol mandated that subjects take the medication after an overnight fast lasting at least 10 h. In a fasted condition, subjects consumed a 180 mg TQB3616 capsule with 240 mL of warm water, ensuring they remained and fasted for an additional 4 h post-dose. In a fed condition, subjects consumed a 180 mg TQB3616 capsule with 240 mL of warm water after consuming a high-fat, high-calorie breakfast (approximately 800–1,000 kcal, Supplementary table) 30 min prior to adminstration, subjects began their breakfast and completed the meal within the next 30 min. Capsules were swallowed whole without chewing.
# Pharmacokinetic (PK) samples were collected at specific times: 0 h (within 60 min prior to dosing), 1 h, 2 h, 4 h, 5 h, 5.5 h, 6 h, 6.5 h, 7 h, 7.5 h, 8 h, 12 h, 24 h, 48 h, 72 h, 120 h, 168 h and 264 h post-dosing, totaling 18 sampling points. At each scheduled time, approximately 3 mL of blood was collected with a pre-chilled EDTA-K2 tubes. After gentle 180° inversion (×4) for homogenization, samples were immediately transferred to an ice bath. All blood specimens were centrifuged at 3,500 rpm for 10 min within 30 min of collection. The obtained plasma was aliquoted and stored at −80°C ± 10°C until batch analysis.
# (§1) Plasma concentrations of TQB3616 were quantified using a validated liquid chromatography-tandem mass spectrometry (LC-MS/MS) method. Calibration standards and quality control samples (K2-EDTA plasma matrix) were prepared using [D8]-TQB3616 as the internal standard. Protein precipitation extraction from 100 μL plasma was performed followed by chromatographic separation on a C18 column (50 × 2.1 mm, 1.7 μm). Mass transitions m/z 447.1→431.3 (TQB3616) and m/z 455.2→439.3 (IS) were monitored for quantification.
# Phoenix WinNonlin (version 8.3.4) was used to calculate pharmacokinetic parameters, including: […] (Tmax), area under the curve (AUC) from time zero to the last measurable concentration (AUC0-t), AUC from time zero to observed infinity (AUC0- ∞ ), peak concentration (Cmax),terminal half-life of analyte in plasma (t1/2), terminal rate constant (λz), and extrapolated AUC percentage (AUCextrp (%)). Other statistical analyses were performed using SAS (version 9.4). All tests were considered statistically significant at p < 0.05.
# Based on the Pharmacokinetics Parameter Set (PKPS), main parameters were summarized by fasting/fed groups using sample size, arithmetic mean, standard deviation, coefficient of variation, median, minimum, maximum, as well as geometric mean and geometric coefficient of variation.
# For the food-effect equivalence analysis set (BES), a mixed-effects model analyzed natural log-transformed Cmax, AUC0-t, and AUC0- ∞ . […]
# CDK4/6 = tested on: CDK4/6; parameters: method as in unpublished data; settings: preclinical; ref unpublished data; cited from earlier work
# [4] = parameters: method as in unpublished data; settings: ref unpublished data, cited from earlier work
# [5] = tested on: HR+/HER2-breast cancer MCF-7 cells; parameters: method as in unpublished data; settings: in vitro; ref unpublished data; cited from earlier work
# [6] = Stability of TQB3616 in LC-MS/MS method validation (K2-EDTA plasma matrix); format: in vitro ADME
# Experimental: as §1
# This study undertook a comprehensive validation of the LC-MS/MS methodology for quantifying TQB3616. The validated quantitative range for TQB3616 was established between 0.3 ng/mL and 300 ng/mL. […] Sample dilution integrity was confirmed at 20-fold dilution.
# [7] = both periods, 16 subjects in safety set
# [8] = coefficient of variation, equivalence analysis fed vs fasted
compound,measurement,setting,value
CC(C)c1c2cc(-c3nc(Nc4ccc(N5CCNCC5)cn4)ncc3F)ccc2nn1C [TQB3616],preclinical toxicity findings,[1],gastrointestinal toxicity and hematological/serum biochemical abnormalities were observed at medium-to-high dose levels
same,"TEAE Abdominal discomfort, n (%)",[2]; Fasted,7.42%
same,"TEAE Abdominal pain, n (%)",[2]; Fasted,4.94%
same,"TEAE Blood bilirubin increased, n (%)",[2]; Fasted,1.23%
same,"TEAE Blood triglycerides increased, n (%)",[2]; Fasted,7.42%
same,"TEAE Diarrhea, n (%)",[2]; Fasted,13.58%
same,"TEAE Nausea, n (%)",[2]; Fasted,7.42%
same,"TEAE Protein total decreased, n (%)",[2]; Fasted,1.23%
same,"TEAE Thrombocyte count decreased, n (%)",[2]; Fasted,1.23%
same,"TEAE White blood cells urine positive, n (%)",[2]; Fasted,2.47%
same,"TEAE emesis, n (%)",[2]; Fasted,6.17%
same,"TEAE laboratory tests, n (%)",[2]; Fasted,13.58%
same,"TEAE Abdominal discomfort, n (%)",[2]; Fed,11.11%
same,"TEAE Abdominal pain, n (%)",[2]; Fed,2.47%
same,"TEAE Blood bilirubin increased, n (%)",[2]; Fed,1.23%
same,"TEAE Blood bilirubin unconjugated increased, n (%)",[2]; Fed,1.23%
same,"TEAE Blood triglycerides increased, n (%)",[2]; Fed,4.94%
same,"TEAE Diarrhea, n (%)",[2]; Fed,12.35%
same,"TEAE Gastrointestinal Disorders, n (%)",[2]; Fed,33.33%
same,"TEAE Head discomfort, n (%)",[2]; Fed,1.23%
same,"TEAE Nausea, n (%)",[2]; Fed,3.7%
same,"TEAE Nervous System Disorders, n (%)",[2]; Fed,1.23%
same,"TEAE Protein total decreased, n (%)",[2]; Fed,1.23%
same,"TEAE Red blood cells urine positive, n (%)",[2]; Fed,1.23%
same,"TEAE Urinary occult blood positive, n (%)",[2]; Fed,2.47%
same,"TEAE emesis, n (%)",[2]; Fed,3.7%
same,adverse events related to the drug,[2]; both periods,77
same,drug-related adverse events of grade II,[2]; both periods,two
same,"serious adverse events, deaths, unexpected serious adverse reactions",[2]; both periods,"No serious adverse events, deaths, or unexpected serious adverse reactions occurred"
same,subjects with adverse events,[2]; [7],16
same,total adverse events (AEs),[2]; [7],81
same,average time to spontaneous resolution of gastrointestinal reactions,[2]; fasted period (range: 0–10 h),3.2 h
same,average time of occurrence of gastrointestinal reactions post-dosing,[2]; fasted period (range: 1.7–7.3 h),4.2 h
same,average time to spontaneous resolution of gastrointestinal reactions,[2]; fed period (range: 0–9.8 h),2.2 h
same,average time of occurrence of gastrointestinal reactions post-dosing,[2]; fed period (range: 2.1–8.4 h),4.3 h
same,anti-tumor efficacy compared with Palbociclib,MCF-7 tumor; human MCF-7 xenograft model,comparable anti-tumor efficacy to Palbociclib at reduced dosage levels
same,MCF-7 tumor growth,MCF-7 tumor; in vivo,suppresses MCF-7 tumor growth in vivo
same,AUC_Extrap,[3]; Fasted (n = 11),7.57 ± 3.29%
same,t1/2,[3]; Fasted (n = 11),71.27 ± 11.83 h
same,λZ,[3]; Fasted (n = 11),0.01 ± 0.002 h⁻¹
same,AUC0-t,[3]; Fasted (n = 11),"3,634.80 ± 2,174.18 h ^a ng/mL"
same,AUC0-∞,[3]; Fasted (n = 11),"3,920.86 ± 2,325.20 h ^a ng/mL"
same,Cmax,[3]; Fasted (n = 11),60.39 ± 37.17 ng/mL
same,Tmax,[3]; Fasted (n = 11),"6.0 (5.0, 24.0) h"
same,AUC0-t GeoMean,"[3]; Fasted, n = 11","3,303.72 h*ng/mL"
same,AUC0-∞ GeoMean,"[3]; Fasted, n = 11","3,584.79 h*ng/mL"
same,Cmax GeoMean,"[3]; Fasted, n = 11",48.47 ng/mL
same,AUC_Extrap,[3]; Fed (n = 13),6.97 ± 2.90%
same,t1/2,[3]; Fed (n = 13),68.95 ± 10.68 h
same,λZ,[3]; Fed (n = 13),0.01 ± 0.002 h⁻¹
same,AUC0-t,[3]; Fed (n = 13),5305.30 ± 1948.11 h ^a ng/mL
same,AUC0-∞,[3]; Fed (n = 13),"5710.59 ± 2,100.68 h ^a ng/mL"
same,Cmax,[3]; Fed (n = 13),75.39 ± 28.34 ng/mL
same,Tmax,[3]; Fed (n = 13),"7.0 (7.0, 12.0) h"
same,AUC0-t GeoMean,"[3]; Fed, n = 13",4792.51 ng·h/mL
same,AUC0-∞ GeoMean,"[3]; Fed, n = 13",5130.98 ng·h/mL
same,Cmax GeoMean,"[3]; Fed, n = 13",71.76 ng/mL
same,AUC0-t CV,[3]; [8],26.51%
same,AUC0-∞ CV,[3]; [8],26.07%
same,Cmax CV,[3]; [8],53.42%
same,AUC0-t Fed/Fasted Ratio (geometric mean ratio),[3]; fasted as the reference,145.06%
same,AUC0-∞ Fed/Fasted Ratio (geometric mean ratio),[3]; fasted as the reference,143.13%
same,Cmax Fed/Fasted Ratio (geometric mean ratio),[3]; fasted as the reference,148.04%
same,AUC0-t,[3]; fasting,"3,634.80 ± 2,174.18 h·ng/mL"
same,AUC0-∞,[3]; fasting,"3,920.86 ± 2,325.20 h·ng/mL"
same,increase of AUC0-t by food intake,[3]; fed compared with fasted,45.95%
same,increase of AUC0-∞ by food intake,[3]; fed compared with fasted,45.65%
same,rise in AUC with a meal,[3]; fed compared with fasted,45%
same,AUC0-t,[3]; fed,5305.30 ± 1948.11 ng·h/mL
same,AUC0-∞,[3]; fed,"5710.59 ± 2,100.68 h·ng/mL"
same,postprandial increase in AUC,[3]; females,69.9%
same,postprandial increase in Cmax,[3]; females,33.5%
same,postprandial increase in AUC,[3]; males,38.2%
same,postprandial increase in Cmax,[3]; males,20.9%
same,inhibition of CDK4/6 kinase activity,CDK4/6,potent inhibitory effects
same,time to steady-state plasma concentrations,[4]; continuous dosing,approximately 7 days
same,exposure increase with dose escalation,"[4]; dose range 20–150 mg, single administration",exposure increase ratio slightly exceeding the dose increase ratio
same,inhibition of proliferation of MCF-7 cells,[5],selectively inhibits proliferation
same,freeze-thaw stability,[6]; method validation,endured four freeze-thaw cycles
same,stability at room temperature,[6]; method validation,at least 23.5 h
same,long-term stability,[6]; −20°C,89 days
same,long-term stability,[6]; −80°C,89 days
